Measured values from US20240270801A1, “EPITOPE PEPTIDE OF HUMAN ALPHA-SYNUCLEIN AND PHARMACEUTICAL COMPOSITION INCLUDING SAID PEPTIDE” (Sumitomo Pharma Co., Ltd., priority 2021, published 2024).
Non-standard residues stand in square brackets, D forms with d. No end group written: not given here. Ahx = NCCCCCC(=O)O

Columns and labels:
[1] = system: aggregated human αSyn; experiment: Antibody-inducing ability in mice: ELISA antibody titer of immune serum with respect to aggregated human αSyn; type: in vivo, mouse; conditions: for Antibody titer with respect to aggregated human αSyn (N = 4 − 6, mean ± standard deviation): Example 2, serum 2 weeks after second administration; for Antibody-inducing ability regarding the aggregated human αSyn (in words): Example 2, balb/c mice; for Antibody titer with respect to aggregated human αSyn, relative to control: mice
Procedure: (§1) Using the various AJ peptide-human αSyn peptide conjugates produced in Example 1, an antibody-inducing ability with respect to human αSyn in mice was evaluated. The various AJ-human αSyn peptide conjugates (250 μg/mouse) or KLH-DMPVDPDN (25 μg/mouse) in physiological saline were intramuscularly administered to balb/c mice (females, 6 weeks old, CLEA Japan, Inc.) twice at a 2-week interval for immunization using aluminum hydroxide (Alum) (InvivoGen, 50 μg/mouse) as an adjuvant. As a negative control, physiological saline (100 μL/mouse) comprising the same amount of aluminum hydroxide was administered twice. Two weeks after the second administration, serum was recovered to evaluate the antibody titer with respect to human αSyn by ELISA.
(§2) ELISA was performed by the following method. 96-well plates were coated with human αSyn (Sigma) at 0.2 μg/well. After washing with PBST (Phosphate Buffered Saline comprising 0.05% Tween) once, blocking was performed with 3% skim milk (FUJIFILM Wako Pure Chemical Corporation). After washing with PBST three times, diluted serum was added to cause a reaction at room temperature for 1 hour. Furthermore, after washing with PBST three times, Goat anti-mouse IgG-HRP (abcam) was added to cause a reaction at room temperature for 1 hour. After washing with PBST three times, SureBlue TMB Microwell Peroxidase Substrate (KPL) was added to cause a reaction at room temperature for 10 minutes while light shielding. An equal volume of a TMB Stop Solution (KPL) was added to stop the reaction, and the absorbance at 450 nm was measured. ELISA with respect to aggregated human αSyn was performed by coating with the aggregated human αSyn (Stress Marq) at 15 ng/well instead of human αSyn in the above-mentioned method.
The antibody-inducing ability of the AJ-human αSyn peptide conjugates (AJ-p54, AJ-p54-KLH, and AJ-DMPVDPDN) produced in Example 1 with respect to human αSyn and aggregated human αSyn in mice was evaluated. Physiological saline or the AJ-human αSyn peptide conjugate (250 μg/mouse) was intramuscularly administered to balb/c mice (females, 6 weeks old, CLEA Japan, Inc.) twice at a 2-week interval using Alum (InvivoGen, 50 μg/mouse) as an adjuvant. Furthermore, KLH-DMPVDPDN (25 μg/mouse) was administered using Alum (InvivoGen, 50 μg/mouse) as an adjuvant. Two weeks after the second administration, serum was recovered to evaluate the antibody titer by ELISA. ELISA was performed by the method described in Example 2.
The antibody-inducing ability of the produced various human αSyn peptide conjugates with respect to human αSyn and aggregated human αSyn in the mice was evaluated by the method described in Example 2 using the antibody titers with respect to human αSyn and aggregated human αSyn of the mouse immune serum. […] In Table 6, the antibody titer of AJ-p242, AJ-p244, AJ-p347, or AJ-p361 is shown with the antibody titer of AJ-p150 as a control being 1 (logarithm). In addition, the antibody titers of AJ-p229, AJ-p237, and AJ-p298 are shown with the antibody titer of AJ-p54 as a control being 1 (logarithm).
The antibody-inducing ability of the AJ-human αSyn peptide conjugates with a modified linker with respect to human αSyn and aggregated human αSyn in the mice was evaluated using the antibody titers with respect to human αSyn and aggregated human αSyn of the mouse immune serum. […] In Table 8, the antibody titers of the AJ-human αSyn peptide conjugates with various modified linkers comprising p54 are shown with the antibody titer of AJ-p54 as a control being 1 (logarithm). In addition, the antibody titers of the AJ-human αSyn peptide conjugates with various modified linkers comprising p150 are shown with the antibody titer of AJ-p150 as a control being 1 (logarithm).

[2] = system: human αSyn; experiment: Antibody-inducing ability in mice: ELISA antibody titer of immune serum with respect to human αSyn; type: in vivo, mouse; parameters: key to Antibody titer with respect to human αSyn, relative to control: log titer relative to control conjugate (control = 1); conditions: for Antibody titer with respect to human αSyn (N = 4 − 6, mean ± standard deviation): Example 2, serum 2 weeks after second administration; for Antibody titer compared with control conjugate (in words): Example 9, mice, human αSyn and aggregated human αSyn, control AJ-p150 or AJ-p54
Procedure: as §1
as §2, with “above-mentioned method. […]” for “above-mentioned method.”
The antibody-inducing ability of the produced various human αSyn peptide conjugates with respect to human αSyn and aggregated human αSyn in the mice was evaluated by the method described in Example 2 using the antibody titers with respect to human αSyn and aggregated human αSyn of the mouse immune serum. […] In Table 6, the antibody titer of AJ-p242, AJ-p244, AJ-p347, or AJ-p361 is shown with the antibody titer of AJ-p150 as a control being 1 (logarithm). In addition, the antibody titers of AJ-p229, AJ-p237, and AJ-p298 are shown with the antibody titer of AJ-p54 as a control being 1 (logarithm). […]

[3] = balb/c mice, i.m. twice at 2-week interval, Alum, AJ conjugates 250 μg/mouse, KLH-DMPVDPDN 25 μg/mouse
[4] = Example 4, balb/c mice, i.m. twice at 2-week interval, Alum, AJ conjugates 250 μg/mouse, KLH-DMPVDPDN 25 μg/mouse
[5] = Example 9, N = 4, titer of AJ-p150 or AJ-p54 as control being 1 (logarithm)
[6] = Example 9, mice, N = 4, titer of AJ-p150 or AJ-p54 as control being 1 (logarithm)
[7] = Example 10, modified linker, titer of AJ-p54 or AJ-p150 as control being 1 (logarithm)
[8] = Example 10, modified linker, mice, titer of AJ-p54 or AJ-p150 as control being 1 (logarithm)

ELKLIFLHRLKRLRKRLKRKXKKDQLGANE (ELKLIFLHRLKRLRKRLKRK[Ahx]KKDQLGANE) [AJ-p142]
Antibody titer with respect to aggregated human αSyn (N = 4 − 6, mean ± standard deviation) [1, 3]: 576 ± 732
Antibody titer with respect to human αSyn (N = 4 − 6, mean ± standard deviation) [2, 3]: 4693 ± 6431

ELKLIFLHRLKRLRKRLKRKXKKDQLGKND (ELKLIFLHRLKRLRKRLKRK[Ahx]KKDQLGKND) [AJ-p233]
Antibody titer with respect to aggregated human αSyn (N = 4 − 6, mean ± standard deviation) [1, 3]: 555 ± 377
Antibody titer with respect to human αSyn (N = 4 − 6, mean ± standard deviation) [2, 3]: 1323 ± 1505

ELKLIFLHRLKRLRKRLKRKXKKDQLGKNE-C-KLH (not fully specified; C-terminal Cys linked to KLH) [AJ-p54-KLH, KLH-modified AJ-human αSyn peptide conjugate, KLH linked via cysteine to the C-terminal]
Induction of the antibody to aggregated human αSyn (in words) ([1]; Example 4, balb/c mice): induced
Antibody titer with respect to aggregated human αSyn (mean ± standard deviation) [1, 4]: 640 ± 314
Induction of the antibody to human αSyn (in words) ([2]; Example 3, mice): induced to the same extent
Antibody titer (N = 4 − 6, mean ± standard deviation) with respect to human αSyn ([2]; Example 3, mice, same manner as Example 2): 1621 ± 681
Induction of the antibody to human αSyn (in words) ([2]; Example 4, balb/c mice): induced
Antibody titer with respect to human αSyn (mean ± standard deviation) [2, 4]: 1621 ± 681

ELKLIFLHRLKRLRKRLKRKXKKDQLGKNEE (ELKLIFLHRLKRLRKRLKRK[Ahx]KKDQLGKNEE) [AJ-p167]
Antibody-inducing ability regarding the aggregated human αSyn (in words) [1]: particularly strong antibody-inducing ability
Antibody titer with respect to aggregated human αSyn (N = 4 − 6, mean ± standard deviation) [1, 3]: 1664 ± 1409
Antibody titer with respect to human αSyn (N = 4 − 6, mean ± standard deviation) [2, 3]: 2389 ± 1399

ELKLIFLHRLKRLRKRLKRKXKKNQLGKND (ELKLIFLHRLKRLRKRLKRK[Ahx]KKNQLGKND) [AJ-p272]
Antibody-inducing ability regarding the aggregated human αSyn (in words) [1]: particularly strong antibody-inducing ability
Antibody titer with respect to aggregated human αSyn (N = 4 − 6, mean ± standard deviation) [1, 3]: 1536 ± 1724
Antibody titer with respect to human αSyn (N = 4 − 6, mean ± standard deviation) [2, 3]: 4096 ± 2896

ELKLIFLHRLKRLRKRLKRKXKKNQLGKNE (ELKLIFLHRLKRLRKRLKRK[Ahx]KKNQLGKNE) [AJ-p237]
Antibody titer with respect to aggregated human αSyn, relative to control [1, 5]: 0.95
Antibody titer compared with control conjugate (in words) [2]: same level of an antibody titer
Antibody titer with respect to human αSyn, relative to control [2, 6]: 0.91

ELKLIFLHRLKRLRKRLKRKXKKTQLGKNE (ELKLIFLHRLKRLRKRLKRK[Ahx]KKTQLGKNE) [AJ-p229]
Antibody titer with respect to aggregated human αSyn, relative to control [1, 5]: 1.02
Antibody titer compared with control conjugate (in words) [2]: same level of an antibody titer
Antibody titer with respect to human αSyn, relative to control [2, 6]: 0.92

ELKLIFLHRLKRLRKRLKRKXKRDQLGKNE (ELKLIFLHRLKRLRKRLKRK[Ahx]KRDQLGKNE) [AJ-p227]
Antibody-inducing ability regarding the aggregated human αSyn (in words) [1]: particularly strong antibody-inducing ability
Antibody titer with respect to aggregated human αSyn (N = 4 − 6, mean ± standard deviation) [1, 3]: 3072 ± 2748
Antibody titer with respect to human αSyn (N = 4 − 6, mean ± standard deviation) [2, 3]: 4267 ± 3200

ELKLIFLHRLKRLRKRLKRKαKEAYEMPSEE [AJ-αK-p150]
Antibody titer with respect to aggregated human αSyn, relative to control [1, 7]: 1.05
Antibody titer with respect to human αSyn, relative to control [2, 8]: 0.95

ELKLIFLHRLKRLRKRLKRKαKKKDQLGKNE [AJ-αK-p54]
Antibody titer with respect to aggregated human αSyn, relative to control [1, 7]: 0.92
Antibody titer with respect to human αSyn, relative to control [2, 8]: 0.99

ELKLIFLHRLKRLRKRLKRKϵKEAYEMPSEE [AJ-εK-p150]
Antibody titer with respect to aggregated human αSyn, relative to control [1, 7]: 0.86
Antibody titer with respect to human αSyn, relative to control [2, 8]: 0.82

ELKLIFLHRLKRLRKRLKRKϵKKKDQLGKNE [AJ-εK-p54]
Antibody titer with respect to aggregated human αSyn, relative to control [1, 7]: 0.81
Antibody titer with respect to human αSyn, relative to control [2, 8]: 0.70

ELKLIFLHRLKRLRKRLKRKϵKKKEAYEMPSEE [AJ-εKKK-p150]
Antibody titer with respect to aggregated human αSyn, relative to control [1, 7]: 0.90
Antibody titer with respect to human αSyn, relative to control [2, 8]: 0.79

ELKLIFLHRLKRLRKRLKRKϵKKKKEAYEMPSEE [AJ-εKKKK-p150]
Antibody titer with respect to aggregated human αSyn, relative to control [1, 7]: 1.00
Antibody titer with respect to human αSyn, relative to control [2, 8]: 0.97

ELKLIFLHRLKRLRKRLKRKϵKKKKKDQLGKNE [AJ-εKKK-p54]
Antibody titer with respect to aggregated human αSyn, relative to control [1, 7]: 0.88
Antibody titer with respect to human αSyn, relative to control [2, 8]: 0.74

ELKLIFLHRLKRLRKRLKRKϵKKKKKKDQLGKNE [AJ-εKKKK-p54]
Antibody titer with respect to aggregated human αSyn, relative to control [1, 7]: 0.90
Antibody titer with respect to human αSyn, relative to control [2, 8]: 0.77
